In US12186283B2, “Bismuth-thiol compositions and methods of use” (Microbion Corporation, priority 2018, dated 2025):
Where “and” joins values, the source holds several entries; their conditions need not be identical. Equal values may be shown once.

Tests used:
[1] = test system: E. coli ATCC 25922; details: CLSI established QC range; cited from earlier work
[2] = Clinical chemistry after face-mask inhalation in beagle dogs; type: in vivo; details: times not given
Procedure: The objective of the study is to determine the maximum tolerated dose (MTD) or maximum feasible dose (MFD) of inhaled bismuth ethanedithiol (BisEDT) after face-mask inhalation exposure (up to 60 min of exposure) in male and female beagle dogs. Animals will be monitored for up to 14 days following the first day of exposure and blood will be collected at predetermined timepoints to analyze the pharmacokinetics of BisEDT. In addition, a coagulation panel will be conducted prior to necropsy. At the conclusion of the study animals will be euthanized and undergo necropsy during which the respiratory tract will be harvested for bioanalytical and histopathological analysis. Results obtained will inform a follow up repeated dose GLP study. This test article is currently being developed as a novel formulation of a broad spectrum antimicrobial/antibiofilm agent, indicated for the treatment of lung infections in patients with cystic fibrosis.
Once adequately conditioned to the restraint device and face-masks, the animals are individually exposed to the test article aerosols. Animals receive a single face-mask inhalation exposure in a ramp study design to test article aerosols for up to 60 min. Animal observations during and post exposure determine the tolerance of inhaled BisEDT aerosols.
Group 1 (vehicle) are exposed to a vehicle atmosphere for 30 minutes. Group 2 (50 μg/kg) are exposed to BisEDT for 30 minutes. Target concentrations and exposure durations for Groups 3-5 are based on the presence of any toxicity via clinical observations or gross necropsy findings. In each of Groups 3-5, if no adverse clinical signs of toxicity are observed, the next groups' exposure will be conducted at a higher target dose. If adverse clinical signs of toxicity are observed, the next groups' exposure will be conducted at a lower target dose. This approach is repeated for all BisEDT doses. The final documented exposure duration is the maximum tolerated dose or the maximum feasible dose.
Blood are collected for pharmacokinetic (PK) analysis prior to exposure, then at 4 hr (±5 min) post exposure, and again on Day 1, Day 2, Day 7 (pre- and 4 hr (±5 min)-post exposure), Day 8, Day 9, Day 10, Day 11, Day 12, Day 13, and Day 14. A total of 0.25 mL is collected at each timepoint. No PK blood is collected from the vehicle control (Group 1) animals; only animals exposed to BisEDT have blood collected for PK analysis. Collected samples are flash frozen without processing for shipment to Medpace for bioanalytical analysis. Additional blood is collected from all animals in all groups for hematology (1 mL) and clinical chemistry (1 mL) at baseline, Day 7 (pre-exposure), and again at euthanasia. Blood (2-2 mL) is collected from all animals at necropsy for coagulation analysis (d-Dimer, fibrinogen, PT, and PTT).
For clinical chemistry analyses, whole blood (1 mL) is placed into serum separator or clot tube and […] by centrifugation at a minimum of 1300 g at 2 to 8° C. for 10 (±1) min. Plasma samples are stored at −70 to −90° C. until analysis.
Clinical chemistry samples are analyzed on a Hitachi Modular Analytics Clinical Chemistry System (Roche Diagnostics, Indianapolis, IN).

[3] = test system: P. aeruginosa; details: control strain ATCC 27853 P. aeruginosa; cited from earlier work
[4] = test system: N. gonorrhoeae; assay: Agar dilution MIC (Example 11); type: cell-based, Neisseria gonorrhoeae; details: QC isolate, ciprofloxacin-resistant and ceftriaxone non-susceptible isolates
[5] = Grp 2, dogs 2001 male, 2002 female, 3 samplings each
[6] = Grp 3, dogs 3001 male, 3002 female, 3 samplings each
[7] = Grp 4, dogs 4001 male, 4004 female (3 samplings each), 4002 female, 4003 male (2 samplings each)
[8] = Grp 4 Avg (stands after dogs 4001, 4004), 3 samplings

In the case of `C1C[S][Bi]([S]CC[S][Bi]2[S]CC[S]2)[S]1` [BisEDT, bismuth-1,2-ethanedithiol], the “QC Range 24 hr” value [1] is given as 0.5-4, the AGR [2, 5] is given as 1.9 and 2.0 and 1.8 and 1.7 and 2.3 and the ALB [2, 5] is given as 3.3 g/dL and 3.4 g/dL and 3.5 g/dL and 3.6 g/dL and 3.7 g/dL. For the same compound, the ALT [2, 5] was 22 IU/L and 18 IU/L and 29 IU/L and 27 IU/L, the AST [2, 5] was 48 IU/L and 36 IU/L and 35 IU/L and 41 IU/L and 38 IU/L and the BUN [2, 5] was 12 mg/dL and 16 mg/dL and 15 mg/dL and 13 mg/dL and 14 mg/dL. For the same compound, the CA2 [2, 5] was 10.9 mg/dL and 10.8 mg/dL and 11.0 mg/dL and 10.6 mg/dL, the CHOL [2, 5] was 168 mg/dL and 167 mg/dL and 152 mg/dL and 138 mg/dL and 123 mg/dL and 114 mg/dL and the CREA [2, 5] was 0.7 mg/dL and 0.6 mg/dL. The GGT [2, 5] was 3 IU/L, the GLOB [2, 5] was 1.7 g/dL and 2.0 g/dL and 1.9 g/dL and 1.6 g/dL and the GLUC [2, 5] was 91 mg/dL and 97 mg/dL and 102 mg/dL and 95 mg/dL and 98 mg/dL and 89 mg/dL. The K [2, 5] was 4.5 mmo/L and 4.9 mmo/L and 4.7 mmo/L and 5.0 mmo/L and 5.2 mmo/L and 4.6 mmo/L, the Na [2, 5] was 149 mmo/L and 147 mmo/L and 148 mmo/L and the TBIL [2, 5] was 0.15 mg/dL. For the same compound, the TP [2, 5] was 5.0 g/dL and 5.1 g/dL and 5.5 g/dL and 5.2 g/dL and 5.3 g/dL, the AGR ([2]; Grp 2 Avg, 3 samplings) was 1.8 and 2.2 and 2.1 and the ALB ([2]; Grp 2 Avg, 3 samplings) was 3.3 g/dL and 3.5 g/dL and 3.6 g/dL. The ALPK ([2]; Grp 2 Avg, 3 samplings) was 186 IU/L and 126 IU/L and 116 IU/L, the ALT ([2]; Grp 2 Avg, 3 samplings) was 20 IU/L and 26 IU/L and 25 IU/L and the AST ([2]; Grp 2 Avg, 3 samplings) was 42 IU/L and 39 IU/L and 37 IU/L. For the same compound, the BUN ([2]; Grp 2 Avg, 3 samplings) was 13 mg/dL and 15 mg/dL, the CA2 ([2]; Grp 2 Avg, 3 samplings) was 10.9 mg/dL and 10.8 mg/dL and the CHOL ([2]; Grp 2 Avg, 3 samplings) was 153 mg/dL and 145 mg/dL and 133 mg/dL. The CREA ([2]; Grp 2 Avg, 3 samplings) was 0.7 mg/dL and 0.6 mg/dL, the GGT ([2]; Grp 2 Avg, 3 samplings) was 3 IU/L and the GLOB ([2]; Grp 2 Avg, 3 samplings) was 1.8 g/dL and 1.7 g/dL. For the same compound, the GLUC ([2]; Grp 2 Avg, 3 samplings) was 93 mg/dL and 98 mg/dL and 96 mg/dL, the K ([2]; Grp 2 Avg, 3 samplings) was 4.8 mmo/L and 5.1 mmo/L and 4.7 mmo/L and the Na ([2]; Grp 2 Avg, 3 samplings) was 149 mmo/L and 147 mmo/L and 148 mmo/L. For the same compound, the TBIL ([2]; Grp 2 Avg, 3 samplings) was 0.15 mg/dL, the TP ([2]; Grp 2 Avg, 3 samplings) was 5.1 g/dL and 5.2 g/dL and 5.4 g/dL and the TRIG ([2]; Grp 2 Avg, 3 samplings) was 52 mg/dL and 60 mg/dL and 47 mg/dL. For the same compound, the AGR [2, 6] was 2.0 and 2.1 and 2.3 and 1.8 and 2.6, the ALB [2, 6] was 3.2 g/dL and 3.4 g/dL and 3.5 g/dL and 3.7 g/dL and the ALPK [2, 6] was 142 IU/L and 135 IU/L and 121 IU/L and 164 IU/L and 90 IU/L and 176 IU/L. For the same compound, the ALT [2, 6] was 26 IU/L and 24 IU/L and 22 IU/L and 28 IU/L and 20 IU/L, the AST [2, 6] was 30 IU/L and 32 IU/L and 33 IU/L and 28 IU/L and the CA2 [2, 6] was 10.7 mg/dL and 10.5 mg/dL and 10.0 mg/dL and 11.2 mg/dL and 10.8 mg/dL and 10.4 mg/dL. The CHOL [2, 6] was 100 mg/dL and 111 mg/dL and 126 mg/dL and 175 mg/dL and 141 mg/dL, the CREA [2, 6] was 0.6 mg/dL and 0.7 mg/dL and 1.0 mg/dL and 0.5 mg/dL and 0.9 mg/dL and the GGT [2, 6] was 3 IU/L. The GLOB [2, 6] was 1.6 g/dL and 1.7 g/dL and 1.5 g/dL and 2.0 g/dL and 1.4 g/dL, the K [2, 6] was 4.7 mmo/L and 5.1 mmo/L and 5.8 mmo/L and 5.5 mmo/L and 5.3 mmo/L and 5.9 mmo/L and the Na [2, 6] was 146 mmo/L and 148 mmo/L and 149 mmo/L and 145 mmo/L. The TBIL [2, 6] was 0.15 mg/dL, the TP [2, 6] was 4.8 g/dL and 5.1 g/dL and 5.0 g/dL and 5.5 g/dL and the AGR ([2]; Grp 3 Avg, 3 samplings) was 2.2 and 1.9 and 2.4. The ALB ([2]; Grp 3 Avg, 3 samplings) was 3.4 g/dL and 3.5 g/dL and 3.6 g/dL, the ALPK ([2]; Grp 3 Avg, 3 samplings) was 153 IU/L and 113 IU/L and 149 IU/L and the ALT ([2]; Grp 3 Avg, 3 samplings) was 27 IU/L and 22 IU/L and 21 IU/L. For the same compound, the AST ([2]; Grp 3 Avg, 3 samplings) was 30 IU/L and 32 IU/L, the CA2 ([2]; Grp 3 Avg, 3 samplings) was 11.0 mg/dL and 10.7 mg/dL and 10.2 mg/dL and the CHOL ([2]; Grp 3 Avg, 3 samplings) was 113 mg/dL and 143 mg/dL and 126 mg/dL. For the same compound, the CREA ([2]; Grp 3 Avg, 3 samplings) was 0.6 mg/dL and 1.0 mg/dL, the GGT ([2]; Grp 3 Avg, 3 samplings) was 3 IU/L and the GLOB ([2]; Grp 3 Avg, 3 samplings) was 1.6 g/dL and 1.9 g/dL and 1.5 g/dL. For the same compound, the GLUC ([2]; Grp 3 Avg, 3 samplings) was 106 mg/dL and 89 mg/dL and 58 mg/dL, the K ([2]; Grp 3 Avg, 3 samplings) was 5.1 mmo/L and 5.2 mmo/L and 5.9 mmo/L and the Na ([2]; Grp 3 Avg, 3 samplings) was 148 mmo/L and 146 mmo/L and 149 mmo/L. The TBIL ([2]; Grp 3 Avg, 3 samplings) was 0.15 mg/dL, the TP ([2]; Grp 3 Avg, 3 samplings) was 4.9 g/dL and 5.3 g/dL and 5.1 g/dL and the TRIG ([2]; Grp 3 Avg, 3 samplings) was 30 mg/dL and 39 mg/dL and 55 mg/dL. The AGR [2, 7] was 2.3 and 1.8 and 1.9 and 2.0 and 1.7 and 1.6, the ALB [2, 7] was 3.6 g/dL and 3.4 g/dL and 3.2 g/dL and 3.3 g/dL and 3.5 g/dL and the ALPK [2, 7] was 103 IU/L and 114 IU/L and 119 IU/L and 93 IU/L and 95 IU/L and 147 IU/L and 146 IU/L and 129 IU/L. For the same compound, the ALT [2, 7] was 27 IU/L and 28 IU/L and 25 IU/L and 24 IU/L and 20 IU/L and 21 IU/L and 40 IU/L and 23 IU/L, the AST [2, 7] was 32 IU/L and 39 IU/L and 34 IU/L and 33 IU/L and 38 IU/L and 31 IU/L and 35 IU/L and 30 IU/L and the BUN [2, 7] was 11 mg/dL and 12 mg/dL and 13 mg/dL and 16 mg/dL and 15 mg/dL. The CA2 [2, 7] was 10.8 mg/dL and 10.6 mg/dL and 10.4 mg/dL and 11.1 mg/dL and 11.2 mg/dL and 11.0 mg/dL, the CREA [2, 7] was 0.7 mg/dL and 0.6 mg/dL and 0.5 mg/dL and the GGT [2, 7] was 3 IU/L. The GLOB [2, 7] was 1.6 g/dL and 1.9 g/dL and 1.7 g/dL and 2.1 g/dL and 2.0 g/dL, the K [2, 7] was 4.7 mmo/L and 4.8 mmo/L and 4.6 mmo/L and 5.1 mmo/L and 4.3 mmo/L and 5.3 mmo/L and 4.9 mmo/L and the Na [2, 7] was 152 mmo/L and 147 mmo/L and 145 mmo/L and 153 mmo/L and 148 mmo/L and 146 mmo/L and 149 mmo/L. The TBIL [2, 7] was 0.15 mg/dL, the TP [2, 7] was 5.2 g/dL and 5.3 g/dL and 4.9 g/dL and 5.1 g/dL and 5.0 g/dL and 5.6 g/dL and 5.5 g/dL and 5.4 g/dL and the TRIG [2, 7] was 49 mg/dL and 46 mg/dL and 40 mg/dL and 53 mg/dL and 44 mg/dL and 34 mg/dL and 41 mg/dL and 55 mg/dL. For the same compound, the AGR [2, 8] was 2.2 and 1.8 and 1.9, the ALB [2, 8] was 3.5 g/dL and 3.4 g/dL and 3.3 g/dL and the ALPK [2, 8] was 103 IU/L and 104 IU/L and 107 IU/L. For the same compound, the ALT [2, 8] was 28 IU/L and 26 IU/L, the AST [2, 8] was 33 IU/L and 39 IU/L and the BUN [2, 8] was 12 mg/dL and 13 mg/dL. For the same compound, the CA2 [2, 8] was 10.8 mg/dL and 10.7 mg/dL and 10.5 mg/dL, the CHOL [2, 8] was 139 mg/dL and 136 mg/dL and 112 mg/dL and the CREA [2, 8] was 0.7 mg/dL and 0.6 mg/dL. The GGT [2, 8] was 3 IU/L, the GLOB [2, 8] was 1.7 g/dL and 1.9 g/dL and the GLUC [2, 8] was 102 mg/dL and 76 mg/dL and 91 mg/dL. For the same compound, the K [2, 8] was 4.7 mmo/L and 5.0 mmo/L and 4.5 mmo/L, the Na [2, 8] was 153 mmo/L and 148 mmo/L and 146 mmo/L and the TBIL [2, 8] was 0.15 mg/dL. The TP [2, 8] was 5.2 g/dL and 5.3 g/dL and 5.0 g/dL, the TRIG [2, 8] was 51 mg/dL and 48 mg/dL and 42 mg/dL and the “Expected MIC: acceptable range” value [3] was 0.5 to 4 µg/mL. The “Expected MIC: goal” value [3] was 1 to 2 µg/mL.
In the case of `CC(S)C(C)S.[Bi]` (centres unmarked) [BisBDT, bismuth-2,3-butanedithiol], the “MIC values (range across isolates)” value [4] was 0.06 to 0.25 µg/mL.
